# Assay results reported in patent publication US20160095923A1, “ORAL COMPOSITION COMPRISNG (+)-CATECHIN” (VALORE, priority 2013, published 2016).
# Legend:
# [1] = Bioavailability after oral administration or intravenous injection in Wistar rats (free/total polyphenol in plasma, LC-MS/MS)
# Description: (§1) The experimental results described below were obtained on the basis of a study carried out in healthy human beings and in healthy Wistar rats weighing approximately 250 grams.
# An acclimation period was observed before beginning the experiments.
# The rats received an administration per os of a volume of 5 ml of a solution of active product.
# (§2) With regard to taking the blood samples from the rats and from the human beings, the blood was collected in tubes internally coated with EDTA and was then centrifuged at 3000 rpm (revolutions per minute) at ambient temperature for 45 min, and then for 15 min at a temperature of 4° C. The plasma was then collected and stored at −70° C. before analysis.
# (§3) The analytical technique (LC-MS/MS for Liquid Chromatography coupled to tandem Mass Spectrometry) for measuring the active substance in the blood was based on the method described by Mata-Bilbao et al., published in 2007 in the Journal of Agricultural and Food Chemistry, volume 55, page 8857.
# (§4) The free (+)-catechin was extracted from the plasma with a solution of phosphoric acid, EDTA and ascorbic acid and was then purified by SPE (solid phase extraction); in particular, it is an Oasis™ HLB extraction which is analyzed by LC-MS/MS. The quantification was carried out according to a standard calibration procedure with (+/−)-catechin-2,3,4-^13C3 as internal standard (SI).
# The procedure is identical with regard to the extraction and the quantification of free quercetin or ECGC in the blood.
# With regard to the extraction and quantification of the total (+)-catechin, the procedure is the same as that applied to the free (+)-catechin, with the exception of the fact that an additional step prior to the purification by SPE is carried out.
# Each of the mixtures is then solubilized in water.
# Each of the mixtures is solubilized in water.
# [2] = tested on: cancer patients (lymphoplasmocytic lymphoma; clear cell renal carcinoma); assay: Treatment of patients suffering from cancer with 500 mg [C:Lys:HCl] complex salt tablet per day; type: in vivo, human; conditions: for IgM level in the blood: lymphoplasmocytic lymphoma, 500 mg/day
# Description: In the first patient a lymphoplasmocytic lymphoma (of Waldenström macroglobulinemia type) was detected during a post-operative blood test on day D0. The diagnosis is based on the electrophoretic detection of a monoclonal peak of immunoglobulins (IgM). This diagnosis was reconfirmed and the peak was assayed during a second analysis using the same detection by electrophoresis.
# These immunoglobulins are found at a high concentration in the blood and in the urine. They therefore constitute real tumor markers. The assaying thereof gives an account of the number of sick cells and the extent of the disease and, consequently, makes it possible to monitor its progression under treatment.
# Successive blood tests gave the following data for the IgM assay (in mg per 100 ml of plasma):
# In the second patient, a left subclavicular cervical adenopathy was first of all detected on day D0. Next, 2 weeks later, a left renal adenocarcinoma was detected for this patient, which was followed by a nephrectomy of the left kidney 3 days after the detection of the adenocarcinoma in this kidney.
# Thereafter, on day D0+3 months, a left cervical lymph node dissection is performed on the patient. This procedure was followed by a series of 15 radiotherapy sessions.
# Starting from day D0+15 months (that is to say on day DT), the patient was orally administered a tablet of 500 mg of (+)-catechin hydrochlorolysinate per day.
# [3] = tested on: gastric ulcers in Mastomys; assay: Incidence of gastric ulcers and histamine level in the gastric mucosa in ovalbumin-sensitized Mastomys; type: in vivo; conditions: for histamine level (HL) in the gastric mucosa / number of animals exhibiting a gastric ulcer (NU): n = 12
# Description: Mastomys in fact has a special system of cells which store histamine in the gastric mucosa; these cells can give rise to carcinoid tumors.
# In this example, a sample of n=48 Mastomys are sensitized a first time by intraperitoneal injection of 3 μg of ovalbumin dissolved in 0.2 ml of saline solution containing 1 mg of aluminum hydroxide the ovalbumin which brings about anti-immunoglobulin E(IgE) and G(IgG) antibodies. After 7 days, a second injection of 1 mg of ovalbumin in 0.01 ml of saline solution is given in the gastric mucosa at the level of the corpus of the anesthetized animals, which causes an ulcerated lesion at the actual site of the injection.
# The 48 rats are divided up into three groups: one of 24 and two of 12 individuals. The first group of 24 individuals (G1) received a placebo (concentrated NaCl solution at 0.15 M).
# The histamine level is measured for the G1, G2 and G3 groups on the basis of a sample of n=12 individuals.
# rat skin = assay: Total incorporation and incorporation into collagen of 3H-proline in the skin; type: in vivo, Wistar rats; conditions: 100 mg/kg by gavage for 5 days; for level of incorporation into collagen (IC) of 3H-hydroxyproline in rat skin / level of total incorporation (IT) of 3H-hydroxyproline in rat skin: treated subgroup
# Description: To do this, a study was carried out in vivo on a batch of 24 female Wistar rats weighing from 95 to 115 g, divided into two groups C and D, each of 12 rats. For each group, the radioactive 3H-hydroxyproline, the specific activity of which is 13.6 Ci/10^−3 mol, was administered to all the animals by intraperitoneal injection of proline-L-(5-3H) at a dose, relative to the weight of the individuals, of 1 mCi/kg, which represents an activity in terms of radioactive 3H-proline of 100 μCi/individual.
# 6 rats of each group received a treatment based on monomeric (+)-catechin by gavage in a proportion of 100 mg/kg for 5 days before sacrifice. […] The group C received monomeric (+)-catechin hydrochlorolysinate, while the group D received monomeric (+)-catechin ascorbolysinate.
# In table 8, the level of incorporation is measured by the number of disintegrations of the radioactive 3H-hydroxyproline per minute (dpm) per mg of dry weight. The higher this number, the higher the concentration of 3H-hydroxyproline.
# In this comparative example, a group E of 12 Wistar rats weighing from 95 to 115 g, in which radioactive 3H-hydroxyproline, the specific activity of which is 13.6 Ci/10^−3 mol, was administered to all the individuals by intraperitoneal injection of proline-L-(5-3H) at a dose, relative to the weight of the individuals, of 1 mCi/kg, which represents an activity in terms of radioactive 3H-proline of 100 ρCi/individual.
# 6 rats of each group received a treatment based on pure monomeric (+)-catechin by gavage in a proportion of 100 mg/kg for 5 days before sacrifice.
# In table 9, the level of incorporation is measured by the number of disintegrations of the radioactive 3H-hydroxyproline per minute (dpm) per mg of dry weight. The higher this number, the higher the concentration of 3H-hydroxyproline.
# [4] = Bioavailability after oral administration in human beings (free monomeric (+)-catechin in plasma, LC-MS/MS); conditions: in vivo, po
# Description: as §1, §2, §3, §4
# This complex salt is administered to a group A of 5 healthy volunteers.
# This ct parameter makes it possible to calculate, from the data of table 1, the bioavailability of the (+)-catechin expressed in ng h/ml.
# [5] = free catechin, per os, dose equivalent to 100 mg/kg catechin, 5 rats
# [6] = oral administration versus placebo
molecule,measurement,setting,value
Cl.Cl.Cl.Cl.Cl.NCCCCC(N)C(=O)O.NCCCCC(N)C(=O)O.NCCCCC(N)C(=O)O.NCCCCC(N)C(=O)O.NCCCCC(N)C(=O)O.Oc1cc(O)c2c(c1)O[C@H](c1ccc(O)c(O)c1)[C@@H](O)C2.Oc1cc(O)c2c(c1)O[C@H](c1ccc(O)c(O)c1)[C@@H](O)C2 [1:2.5:2.5],"ct, reported value on the curve in FIG. 5","[1]; rat, in vivo, 25 mg/kg",105 k ng min/ml
Cl.Cl.Cl.NCCCCC(N)C(=O)O.NCCCCC(N)C(=O)O.NCCCCC(N)C(=O)O.Oc1cc(O)c2c(c1)O[C@H](c1ccc(O)c(O)c1)[C@@H](O)C2 [1:3:3],"ct, calculated value","[1]; rat, in vivo, 25 mg/kg",38 k ng min/ml
Cl.Cl.Cl.Cl.Cl.NCCCCC(N)C(=O)O.NCCCCC(N)C(=O)O.NCCCCC(N)C(=O)O.NCCCCC(N)C(=O)O.NCCCCC(N)C(=O)O.Oc1cc(O)c2c(c1)O[C@H](c1ccc(O)c(O)c1)[C@@H](O)C2 [1:5:5],"ct, calculated value","[1]; rat, in vivo, 25 mg/kg",26 k ng min/ml
Cl.Cl.Cl.NCCCCC(N)C(=O)O.NCCCCC(N)C(=O)O.NCCCCC(N)C(=O)O.Oc1cc(O)c2c(c1)O[C@H](c1ccc(O)c(O)c1)[C@@H](O)C2.Oc1cc(O)c2c(c1)O[C@H](c1ccc(O)c(O)c1)[C@@H](O)C2 [C:Lys:HCl/1:1.5:1.5],"ct, reported value on the curve in FIG. 5","[1]; rat, in vivo, 25 mg/kg",142 k ng min/ml
"O=c1c(O)c(-c2ccc(O)c(O)c2)oc2cc(O)cc(O)c12 [QP, quercetin, reference compound]",Δct^q (difference of ct to QP),"[1]; Wistar, rat, in vivo, 25 mg/kg",0%
"N=C(N)NCCCC(N)C(=O)O.Oc1cc(O)c2c(c1)O[C@H](c1ccc(O)c(O)c1)[C@@H](O)C2 [[C:Arg/1:1], Complex of Monomeric (+)-Catechin and of Arginine in a Molar Equivalence Ratio of 1:1]",Δct (difference of ct to CP),"[1]; free catechin, per os, dose equivalent to 100 mg/kg catechin",+21%
same,T (max),[1]; [5],1 h
"NCCCCC(N)C(=O)O.Oc1cc(O)c2c(c1)O[C@H](c1ccc(O)c(O)c1)[C@@H](O)C2 [[C:Lys/1:1], Complex of Monomeric (+)-Catechin and of Lysine in a Molar Equivalence Ratio of 1:1]",T (max),[1]; [5],1 h
"NCCCCC(N)C(=O)O.NCCCCC(N)C(=O)O.Oc1cc(O)c2c(c1)O[C@H](c1ccc(O)c(O)c1)[C@@H](O)C2 [[C:Lys/1:2], Complex of Monomeric (+)-Catechin and of Lysine in a Molar Equivalence Ratio of 1:2]",T (max),[1]; [5],2 h
same,Δct (difference of ct to CP),"[1]; free catechin, per os, equivalent to 25 mg/kg (comparative example 4)",+17%
same,T (max),"[1]; free catechin, per os, equivalent to 25 mg/kg, 3 rats (comparative example 4)",1 h
same,Δct (difference of ct to CP),"[1]; total (+)-catechin, per os, equivalent to 25 mg/kg",+24%
same,T (max),"[1]; total (+)-catechin, per os, equivalent to 25 mg/kg, 3 rats",1 h
Cl.Cl.NCCCCC(N)C(=O)O.NCCCCC(N)C(=O)O.Oc1cc(O)c2c(c1)O[C@H](c1ccc(O)c(O)c1)[C@@H](O)C2 [[C:Lys:HCl/1:2:2]],total plasma concentration (ct) of free monomeric (+)-catechin,"[1]; rat, in vivo, iv, 25 mg/kg",87 970 ng min/ml
same,total plasma concentration (ct) of total monomeric (+)-catechin,"[1]; rat, in vivo, iv, 25 mg/kg",277 040 ng min/ml
same,total plasma concentration (ct) of total monomeric (+)-catechin,"[1]; rat, in vivo, po, 25 mg/kg",479 585 ng min/ml
"Cl.Cl.NCCCCC(N)C(=O)O.NCCCCC(N)C(=O)O.O=c1c(O)c(-c2ccc(O)c(O)c2)oc2cc(O)cc(O)c12 [[Q:Lys:HCl/1:2:2], reference compound]",Δct^q (difference of ct to QP),"[1]; rat, in vivo, 25 mg/kg",+18%
Cl.NCCCCC(N)C(=O)O.Oc1cc(O)c2c(c1)O[C@H](c1ccc(O)c(O)c1)[C@@H](O)C2 [monomeric (+)-catechin hydrochlorolysinate],IgM level in the blood,"[2]; first patient, DT + 4 months",2417 mg/100 ml
same,IgM level in the blood,"[2]; first patient, DT + 9 months",2410 mg/100 ml
same,IgM level in the blood,"[2]; first patient, DT + 15 months",2412 mg/100 ml
same,clinical course of IgM level under treatment,"[2]; first patient, taken for a year and a half",stabilization below the maximum detected on day DT
same,clinical outcome,"[2]; second patient, clear cell renal carcinoma, 500 mg/day from DT",stabilized the patient's condition
same,histamine level (HL) in the gastric mucosa,"[3]; G2, per os 2×300 mg a day",37.91 ± 3.73 10^−6 mg/kg of protein
same,number of animals exhibiting a gastric ulcer (NU),"[3]; G2, per os 2×300 mg a day",5
same,histamine level (HL) in the gastric mucosa,"[3]; G3, intraperitoneally 100 mg",34.98 ± 3.52 10^−6 mg/kg of protein
same,number of animals exhibiting a gastric ulcer (NU),"[3]; G3, intraperitoneally 100 mg",6
same,decrease in the histamine level in the gastric mucosa,[3]; [6],−18%
same,decrease in the number of animals exhibiting a gastric ulcer,[3]; [6],−72%
same,increase in the level of incorporation versus control,rat skin,+15%
same,level of incorporation into collagen (IC) of 3H-hydroxyproline in rat skin,rat skin,1343 ± 48 dpm/mg
same,level of total incorporation (IT) of 3H-hydroxyproline in rat skin,rat skin,6248 ± 124 dpm/mg
same,"ct, reported value on the curve in FIG. 5","[1]; rat, in vivo, 25 mg/kg",127 k ng min/ml
same,T (max),[4],0.5 h
same,increase in c (max) compared with pure monomeric (+)-catechin,[4],+103%
same,"increase in speed of passage into blood, T (max), compared with pure monomeric (+)-catechin",[4],+166%
"O=C(O[C@@H]1Cc2c(O)cc(O)cc2O[C@@H]1c1cc(O)c(O)c(O)c1)c1cc(O)c(O)c(O)c1 [pure EGCG, epigallocatechin gallate, reference compound]",plasma levels measured (below reliable limits of detection),"[1]; free EGCG, per os, equivalent to 25 mg/kg polyphenol",below 250 ng/ml
monomeric (+)-catechin ascorbolysinate,increase in the level of incorporation versus control,rat skin,+14%
same,level of incorporation into collagen (IC) of 3H-hydroxyproline in rat skin,rat skin,1117 ± 49 dpm/mg
same,level of total incorporation (IT) of 3H-hydroxyproline in rat skin,rat skin,5112 ± 259 dpm/mg
